# Reference: publication PMC9732253, “Inhibition of the Phosphatidylinositol-3 Kinase Pathway Using Bimiralisib in Loss-of-Function NOTCH1-Mutant Head and Neck Cancer” (The Oncologist, 2022)
# Protocol: All patients received 140 mg bimiralisib (PQR309) orally once daily on 2 consecutive days followed by 5 days without treatment weekly until unacceptable toxicity, tumor progression, patient request for withdrawal, investigator judgment, or death.
# Radiologic tumor assessments were performed using computed tomography at baseline and every 6 weeks. Safety was continuously monitored.
smiles,measurement,setting,value
"Nc1cc(C(F)(F)F)c(-c2nc(N3CCOCC3)nc(N3CCOCC3)n2)cn1 [Bimiralisib, 5-(4,6-dimorpholino-1,3,5-triazin-2-yl)-4-(trifluoromethyl)pyridin-2-amine]",Patients with AEs (any severity) suspected to be related to treatment,7 patients of 8,87.5%
same,AE leading to dose reduction,8 patients,No patients
same,Tolerability,"8 patients, 140 mg orally 2 consecutive days weekly",well tolerated
same,"Aspiration pneumonia, AEs irrespective of causality","any grade, 2 patients of 8",25.0%
same,"Confusional state, AEs irrespective of causality","any grade, 2 patients of 8",25.0%
same,"Rash, AEs irrespective of causality","any grade, 2 patients of 8",25.0%
same,"Vomiting, AEs irrespective of causality","any grade, 2 patients of 8",25.0%
same,"Fatigue, AEs irrespective of causality","any grade, 3 patients of 8",37.5%
same,"Hyperglycemia, AEs irrespective of causality","any grade, 3 patients of 8",37.5%
same,"Nausea, AEs irrespective of causality","any grade, 3 patients of 8",37.5%
same,Patients who died during the study,both events unrelated to treatment,Two
same,SAEs related to treatment with bimiralisib,both hyperglycemia,Two
same,"Patients with severe AEs (SAEs, CTCAE grade ≥3)",five patients of 8,62.5%
same,"Infections and infestations, Grade 1, patients","human, in vivo",0 n (%)
same,"Infections and infestations, Grade 1, total number of events","human, in vivo",0
same,"Infections and infestations, Grade 2, patients","human, in vivo",2 (25.0) n (%)
same,"Infections and infestations, Grade 2, total number of events","human, in vivo",3
same,"Infections and infestations, Grade 3/4, total number of events","human, in vivo",3
same,"Sepsis, Grade 1, patients","human, in vivo",0 n (%)
same,"Sepsis, Grade 1, total number of events","human, in vivo",0
same,"Sepsis, Grade 2, patients","human, in vivo",0 n (%)
same,"Sepsis, Grade 2, total number of events","human, in vivo",0
same,"Sepsis, Grade 3/4, patients","human, in vivo",1 (12.5) n (%)
same,"Skin infection, AEs irrespective of causality","human, in vivo",25%
same,"Skin infection, Grade 1, patients","human, in vivo",0 n (%)
same,"Skin infection, Grade 1, total number of events","human, in vivo",0
same,"Skin infection, Grade 2, patients","human, in vivo",1 (12.5) n (%)
same,"Skin infection, Grade 2, total number of events","human, in vivo",1
same,"Skin infection, Grade 3/4, patients","human, in vivo",1 (12.5) n (%)
same,"Wound infection, Grade 1, patients","human, in vivo",0 n (%)
same,"Wound infection, Grade 1, total number of events","human, in vivo",0
same,"Wound infection, Grade 2, patients","human, in vivo",1 (12.5) n (%)
same,"Wound infection, Grade 2, total number of events","human, in vivo",1
same,"Wound infection, Grade 3/4, patients","human, in vivo",0 n (%)
same,Number of AEs (any severity) suspected to be related to treatment,in 7 patients,23
same,"Acute respiratory distress syndrome, Grade 1, patients",n = 8,0 n (%)
same,"Acute respiratory distress syndrome, Grade 1, total number of events",n = 8,0
same,"Acute respiratory distress syndrome, Grade 2, patients",n = 8,0 n (%)
same,"Acute respiratory distress syndrome, Grade 2, total number of events",n = 8,0
same,"Acute respiratory distress syndrome, Grade 3/4, patients",n = 8,1 (12.5) n (%)
same,"Acute respiratory distress syndrome, Grade 3/4, total number of events",n = 8,1
same,"Alanine aminotransferase increased, Grade 1, patients",n = 8,0 n (%)
same,"Alanine aminotransferase increased, Grade 1, total number of events",n = 8,0
same,"Alanine aminotransferase increased, Grade 2, patients",n = 8,0 n (%)
same,"Alanine aminotransferase increased, Grade 2, total number of events",n = 8,0
same,"Alanine aminotransferase increased, Grade 3/4, patients",n = 8,1 (12.5) n (%)
same,"Alanine aminotransferase increased, Grade 3/4, total number of events",n = 8,1
same,"Anemia, Grade 1, patients",n = 8,0 n (%)
same,"Anemia, Grade 1, total number of events",n = 8,0
same,"Anemia, Grade 2, patients",n = 8,0 n (%)
same,"Anemia, Grade 2, total number of events",n = 8,0
same,"Anemia, Grade 3/4, patients",n = 8,1 (12.5) n (%)
same,"Anemia, Grade 3/4, total number of events",n = 8,1
same,"Any adverse event, Grade 1, patients",n = 8,8 (100.0) n (%)
same,"Any adverse event, Grade 1, total number of events",n = 8,29
same,"Any adverse event, Grade 2, patients",n = 8,3 (37.5) n (%)
same,"Any adverse event, Grade 2, total number of events",n = 8,13
same,"Any adverse event, Grade 3/4, patients",n = 8,5 (62.5) n (%)
same,"Any adverse event, Grade 3/4, total number of events",n = 8,15
same,"Aspartate aminotransferase increased, Grade 1, patients",n = 8,0 n (%)
same,"Aspartate aminotransferase increased, Grade 1, total number of events",n = 8,0
same,"Aspartate aminotransferase increased, Grade 2, patients",n = 8,0 n (%)
same,"Aspartate aminotransferase increased, Grade 2, total number of events",n = 8,0
same,"Aspartate aminotransferase increased, Grade 3/4, patients",n = 8,1 (12.5) n (%)
same,"Aspartate aminotransferase increased, Grade 3/4, total number of events",n = 8,1
same,"Asthenia, Grade 1, patients",n = 8,1 (12.5) n (%)
same,"Asthenia, Grade 1, total number of events",n = 8,1
same,"Asthenia, Grade 2, patients",n = 8,0 n (%)
same,"Asthenia, Grade 2, total number of events",n = 8,0
same,"Asthenia, Grade 3/4, patients",n = 8,0 n (%)
same,"Asthenia, Grade 3/4, total number of events",n = 8,0
same,"Blood and lymphatic system disorders, Grade 1, patients",n = 8,0 n (%)
same,"Blood and lymphatic system disorders, Grade 1, total number of events",n = 8,0
same,"Blood and lymphatic system disorders, Grade 2, patients",n = 8,0 n (%)
same,"Blood and lymphatic system disorders, Grade 2, total number of events",n = 8,0
same,"Blood and lymphatic system disorders, Grade 3/4, patients",n = 8,1 (12.5) n (%)
same,"Blood and lymphatic system disorders, Grade 3/4, total number of events",n = 8,1
same,"Blood creatinine increased, Grade 1, patients",n = 8,1 (12.5) n (%)
same,"Blood creatinine increased, Grade 1, total number of events",n = 8,1
same,"Blood creatinine increased, Grade 2, patients",n = 8,0 n (%)
same,"Blood creatinine increased, Grade 2, total number of events",n = 8,0
same,"Blood creatinine increased, Grade 3/4, patients",n = 8,0 n (%)
same,"Blood creatinine increased, Grade 3/4, total number of events",n = 8,0
same,"Blood glucose increased, Grade 1, patients",n = 8,1 (12.5) n (%)
same,"Blood glucose increased, Grade 1, total number of events",n = 8,1
same,"Blood glucose increased, Grade 2, patients",n = 8,0 n (%)
same,"Blood glucose increased, Grade 2, total number of events",n = 8,0
same,"Blood glucose increased, Grade 3/4, patients",n = 8,0 n (%)
same,"Blood glucose increased, Grade 3/4, total number of events",n = 8,0
same,"Cellulitis, Grade 1, patients",n = 8,0 n (%)
same,"Cellulitis, Grade 1, total number of events",n = 8,0
same,"Cellulitis, Grade 2, patients",n = 8,1 (12.5) n (%)
same,"Cellulitis, Grade 2, total number of events",n = 8,1
same,"Cellulitis, Grade 3/4, patients",n = 8,0 n (%)
same,"Cellulitis, Grade 3/4, total number of events",n = 8,0
same,"Chest pain, Grade 1, patients",n = 8,1 (12.5) n (%)
same,"Chest pain, Grade 1, total number of events",n = 8,1
same,"Chest pain, Grade 2, patients",n = 8,0 n (%)
same,"Chest pain, Grade 2, total number of events",n = 8,0
